Reference: the supplement of paper PMC10627819

Assays:
Experiment in all cases: Bliss interaction score (quartile over a dose matrix) (fitness difference); higher = more antagonism (negative = synergy)
B. subtilis 168 = tested on: B. subtilis 168
Summary of the method: (§1)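 Quartiles summarise the Bliss score over technical, biological and donor/recipient replicates, where the score is observed minus expected fitness under a product model. Expected fitness uses single-drug values inferred from combination data. Fitness is OD595 at entry into stationary phase over the plate's robust no-drug mean, capped at 1.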

S. aureus Newman = tested on: S. aureus Newman
Summary of the method: as §1

S. aureus DSM 20231 = tested on: S. aureus DSM 20231
Summary of the method: as §1

S. pneumoniae D39V = tested on: S. pneumoniae D39V
Summary of the method: as §1
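Note: first quartile when negative (synergy) and third quartile when positive (antagonism).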

Compound	Bliss interaction score (B. subtilis 168)	Bliss interaction score (S. aureus Newman)	Bliss interaction score (S. aureus DSM 20231)	Bliss interaction score (S. pneumoniae D39V)	Bliss interaction score (B. subtilis 168; main component drawn)	Bliss interaction score (S. aureus Newman; main component drawn)	Bliss interaction score (S. aureus DSM 20231; main component drawn)	Bliss interaction score (S. pneumoniae D39V; main component drawn)
CN(C)[C@@H]1C(O)=C(C(N)=O)C(=O)[C@@]2(O)C(O)=C3C(=O)c4c(O)ccc(Cl)c4[C@@](C)(O)[C@H]3C[C@@H]12 [Clortetracycline] + O=C(O[C@@H]1Cc2c(O)cc(O)cc2O[C@@H]1c1cc(O)c(O)c(O)c1)c1cc(O)c(O)c(O)c1 [EGCG]	-0.096	-0.0462	0.114	-0.0892				
N#CC(C#N)=NNc1cccc(Cl)c1 [CCCP] + CN1C2=CC=CC=C2N=C3C1=CC=CC3=O [Pyocyanin]	-0.0772	-0.0376	-0.0215	-0.0451				
N#CC(C#N)=NNc1cccc(Cl)c1 [CCCP] + COc1ccc(C[C@H](N)C(=O)N[C@H]2[C@@H](O)[C@H](n3cnc4c(N(C)C)ncnc43)O[C@@H]2CO)cc1 [Puromycin]	0.0243	0.0515	0.0553	0.0604				
CN(C)[C@@H]1C(O)=C(C(N)=O)C(=O)[C@@]2(O)C(O)=C3C(=O)c4c(O)ccc(Cl)c4[C@@](C)(O)[C@H]3C[C@@H]12 [Clortetracycline] + COc1ccc(C[C@H](N)C(=O)N[C@H]2[C@@H](O)[C@H](n3cnc4c(N(C)C)ncnc43)O[C@@H]2CO)cc1 [Puromycin]	-0.0605	-0.0798	-0.0681	-0.0852				
CO/N=C(\C(=O)N[C@@H]1C(=O)N2C(C(=O)O)=C(COC(C)=O)CS[C@H]12)c1csc(N)n1 [Cefotaxime] + CC1(C)S[C@@H]2[C@H](NC(=O)Cc3ccccc3)C(=O)N2[C@H]1C(=O)O [PenicillinG]	-0.151	-0.0351	-0.0835	-0.0791				
N#CC(C#N)=NNc1cccc(Cl)c1 [CCCP] + CO/N=C(\C(=O)N[C@@H]1C(=O)N2C(C(=O)[O-])=C(C[N+]3(C)CCCC3)CS[C@H]12)c1csc(N)n1 [Cefepime]	0.0769	0.0498	0.1	-0.0827				
CN(C)[C@@H]1C(O)=C(C(N)=O)C(=O)[C@@]2(O)C(O)=C3C(=O)c4c(O)ccc(Cl)c4[C@@](C)(O)[C@H]3C[C@@H]12 [Clortetracycline] + CCC[C@@H]1C[C@@H](C(=O)N[C@@H]([C@H]2O[C@H](SC)[C@H](O)[C@@H](O)[C@H]2O)[C@@H](C)O)N(C)C1 [Lincomycin]	0.103	-0.144	-0.171	0.036				
CC1(C)S[C@@H]2[C@H](NC(=O)Cc3ccccc3)C(=O)N2[C@H]1C(=O)O [PenicillinG] + CN(N=O)C(=O)N[C@@H](C=O)[C@@H](O)[C@H](O)[C@H](O)CO [Streptozotocin]	0.0513	-0.0606	-0.0545	0.0394				
C[C@H]1c2cccc(O)c2C(=O)C2=C(O)[C@]3(O)C(=O)C(C(N)=O)=C(O)[C@@H](N(C)C)[C@@H]3[C@@H](O)[C@@H]21 [Doxycycline] + CCCCCCCCCC(=O)N[C@@H]1[C@H]([C@@H]([C@H](O[C@H]1OC2=C3C=C4C=C2OC5=C(C=C(C=C5)[C@H]([C@H]6C(=O)N[C@@H](C7=C(C(=CC(=C7)O)OC8[C@H]([C@H]([C@@H]([C@H](O8)CO)O)O)O)C9=C(C=CC(=C9)[C@H](C(=O)N6)NC(=O)[C@@H]4NC(=O)[C@@H]1C2=CC(=CC(=C2)OC2=C(C=CC(=C2)[C@H](C(=O)N[C@H](CC2=CC(=C(O3)C=C2)Cl)C(=O)N1)N)O)O)O)C(=O)O)O[C@H]1[C@@H]([C@H]([C@@H]([C@H](O1)CO)O)O)NC(=O)C)Cl)CO)O)O [Teicoplanin]					0.0442	0.0478	0.118	-0.0489
CO/N=C(\C(=O)N[C@@H]1C(=O)N2C(C(=O)O)=C(COC(C)=O)CS[C@H]12)c1csc(N)n1 [Cefotaxime] + O=C(N[C@H](CO)[C@H](O)c1ccc([N+](=O)[O-])cc1)C(Cl)Cl [Chloramphenicol]	-0.0771	-0.0902	0.106	0.158				
CC1(C)S[C@@H]2[C@H](NC(=O)Cc3ccccc3)C(=O)N2[C@H]1C(=O)O [PenicillinG] + CCN(CC)CCOC(=O)c1ccc(N)cc1 [Procaine]	0.0367	0.0542	-0.0657	0.0857				
CC(=O)Oc1ccccc1C(=O)O [Acetylsalicylicacid] + CC[C@H]1OC(=O)[C@H](C)[C@@H](O[C@H]2C[C@@](C)(OC)[C@@H](O)[C@H](C)O2)[C@H](C)[C@@H](O[C@@H]2O[C@H](C)C[C@H](N(C)C)[C@H]2O)[C@](C)(OC)C[C@@H](C)C(=O)[C@H](C)[C@@H](O)[C@]1(C)O [Clarithromycin]	0.322	0.151	0.109	0.0695				
CC1(C)S[C@@H]2[C@H](NC(=O)Cc3ccccc3)C(=O)N2[C@H]1C(=O)O [PenicillinG] + CC[C@H]1OC(=O)[C@H](C)C(=O)[C@H](C)[C@@H](O[C@@H]2O[C@H](C)C[C@H](N(C)C)[C@H]2O)[C@](C)(OC)C[C@@H](C)C(=O)[C@H](C)[C@H]2N(CCCCn3cnc(-c4cccnc4)c3)C(=O)O[C@]12C [Telithromycin]	0.0511	-0.0465	0.0277	0.0452				
O=C(O)c1cn(C2CC2)c2cc(N3CCNCC3)c(F)cc2c1=O [Ciprofloxacin] + CN(C)[C@@H]1C(O)=C(C(N)=O)C(=O)[C@@]2(O)C(O)=C3C(=O)c4c(O)ccc(Cl)c4[C@@](C)(O)[C@H]3C[C@@H]12 [Clortetracycline]	0.199	0.119	0.104	-0.035				
N#CC(C#N)=NNc1cccc(Cl)c1 [CCCP] + C[C@@H](O)[C@H]1C(=O)N2C(C(=O)O)=C(SCCNC=N)C[C@H]12 [Imipenem]	-0.0769	0.0181	0.0449	0.0923				
CC(=O)Oc1ccccc1C(=O)O [Acetylsalicylicacid] + CN(C)C(=O)C(CCN1CCC(O)(c2ccc(Cl)cc2)CC1)(c1ccccc1)c1ccccc1 [Loperamide]	0.0636	-0.0344	0.131	0.144				
